The target of the assay is T1, human DGAT1 (Homo sapiens, UniProt O75907).
T1 construct: made in house; host or cells: Sf9 insect cells (baculovirus), membrane fraction
T1 sequence (O75907 1-488): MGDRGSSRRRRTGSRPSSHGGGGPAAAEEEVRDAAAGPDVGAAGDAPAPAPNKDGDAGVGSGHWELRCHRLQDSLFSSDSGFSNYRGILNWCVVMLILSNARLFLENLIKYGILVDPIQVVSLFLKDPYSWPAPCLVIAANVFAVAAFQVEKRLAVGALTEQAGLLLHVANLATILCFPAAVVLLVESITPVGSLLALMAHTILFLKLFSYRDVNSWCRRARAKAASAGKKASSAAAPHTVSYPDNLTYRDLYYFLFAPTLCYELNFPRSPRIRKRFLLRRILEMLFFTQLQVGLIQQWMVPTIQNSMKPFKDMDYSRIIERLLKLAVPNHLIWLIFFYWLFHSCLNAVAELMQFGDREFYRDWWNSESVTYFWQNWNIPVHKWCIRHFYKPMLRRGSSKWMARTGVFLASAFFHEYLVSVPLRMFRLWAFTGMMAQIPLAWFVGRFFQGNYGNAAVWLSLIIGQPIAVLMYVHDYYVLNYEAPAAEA
The assay can be described thus: Human Enzyme Assay (DGAT1 inhibition, 14C oleoyl CoA incorporation into triolein). It is filed as biochemical. The settings on record: human DGAT1 expressed in sf9 insect cell membranes. The method, then: Briefly, sf9 cells were infected with recombinant baculovirus containing human DGAT1 coding sequences and harvested after 48 h. Cells were lysed by sonication and membranes isolated by centrifuging at 28000 rpm for 1 h at 4° C. on a 41% sucrose gradient. The membrane fraction at the interphase was collected, washed, and stored in liquid nitrogen.
The reaction was started by adding ^14C oleoyl coenzyme A (30 μM final concentration) and incubated at room temperature for 30 minutes. The reaction was stopped by adding 200 μl 2-propanol:heptane 7:1. Radioactive triolein product was separated into the organic phase by adding 300 μl heptane and 100 μl 0.1 M carbonate buffer pH 9.5. DGAT1 activity was quantified by counting aliquots of the upper heptane layer by liquid scintillography.

[1] abbreviates: Examples 5 to 24, rounded to 2 decimal places.
[2] abbreviates: Examples 25 to 59, rounded to 2 decimal places.

As a reminder, the IC50 is the point on the concentration scale where inhibition reaches its midpoint. High values mean lower potency, low ones higher potency.

Each structure is given as a SMILES string.

`Nc1ncnc2c1C(=O)N(c1ccc(-c3ccc(S(N)(=O)=O)cc3Cl)cc1)CCO2` [Example 4, 4′-(4-Amino-5-oxo-7,8-dihydropyrimido[5,4-f][1,4]oxazepin-6(5H)-yl)-2-chlorobiphenyl-4-sulfonamide] had a half-maximal inhibitory concentration (IC50) (usually mean of 2 measurements) of 35 nM.
With `Cc1c(Cl)cccc1-c1ccc(N2CCOc3ncnc(N)c3C2=O)cc1` [Example 6, 4-amino-6-(3′-chloro-2′-methylbiphenyl-4-yl)-7,8-dihydropyrimido[5,4-f][1,4]oxazepin-5(6H)-one], under setting [1], the IC50 was determined as 400 nM.
Still for that read-out and setting: the result for `Cc1cc(Cl)ccc1-c1ccc(N2CCOc3ncnc(N)c3C2=O)cc1` [Example 7, 4-amino-6-(4′-chloro-2′-methylbiphenyl-4-yl)-7,8-dihydropyrimido[5,4-f][1,4]oxazepin-5(6H)-one] reads 80 nM; that for `Cc1ccc(Cl)cc1-c1ccc(N2CCOc3ncnc(N)c3C2=O)cc1` [Example 8, 4-amino-6-(5′-chloro-2′-methylbiphenyl-4-yl)-7,8-dihydropyrimido[5,4-f][1,4]oxazepin-5(6H)-one], 70 nM; that for `N#Cc1ccc(Cl)cc1-c1ccc(N2CCOc3ncnc(N)c3C2=O)cc1` [Example 14, 4′-(4-amino-5-oxo-7,8-dihydropyrimido[5,4-f][1,4]oxazepin-6(5H)-yl)-5-chlorobiphenyl-2-carbonitrile], 100 nM.
Still for that read-out and setting: under `N#Cc1c(Cl)cccc1-c1ccc(N2CCOc3ncnc(N)c3C2=O)cc1` [Example 15, 4′-(4-amino-5-oxo-7,8-dihydropyrimido[5,4-f][1,4]oxazepin-6(5H)-yl)-3-chlorobiphenyl-2-carbonitrile] stands 240 nM; under `Nc1ncnc2c1C(=O)N(c1ccc(-c3ccc(S(N)(=O)=O)cc3Cl)cc1)CCO2` [Example 18, 4′-(4-Amino-5-oxo-7,8-dihydropyrimido[5,4-f][1,4]oxazepin-6(5H)-yl)-2-chlorobiphenyl-4-sulfonamide], 40 nM; under `N#Cc1cc(Cl)ccc1-c1ccc(N2CCOc3ncnc(N)c3C2=O)cc1` [Example 22, 4′-(4-Amino-5-oxo-7,8-dihydropyrimido[5,4-f][1,4]oxazepin-6(5H)-yl)-4-chlorobiphenyl-2-carbonitrile], 50 nM.
Consider `Nc1ncnc2c1C(=O)N(c1ccc(-c3cccc(F)c3F)cc1)CCO2` [Example 25, 4-Amino-6-(2′,3′-difluorobiphenyl-4-yl)-7,8-dihydropyrimido[5,4-f][1,4]oxazepin-5(6H)-one], for which the half-maximal inhibitory concentration (IC50) under setting [2] worked out at 320 nM.
`Nc1ncnc2c1C(=O)N(c1ccc(-c3cc(F)ccc3F)cc1)CCO2` [Example 26, 4-Amino-6-(2′,5′-difluorobiphenyl-4-yl)-7,8-dihydropyrimido[5,4-f][1,4]oxazepin-5(6H)-one]: half-maximal inhibition under setting [2] (IC50) was put at 110 nM.
The same measure, in the same setting: the result for `Nc1ncnc2c1C(=O)N(c1ccc(-c3ccc(Cl)cc3F)cc1)CCO2` [Example 27, 4-Amino-6-(4′-chloro-2′-fluorobiphenyl-4-yl)-7,8-dihydropyrimido[5,4-f][1,4]oxazepin-5(6H)-one] reads 40 nM.
The same measure, in the same setting: under `Nc1ncnc2c1C(=O)N(c1ccc(-c3cc(F)c(F)cc3F)cc1)CCO2` [Example 28, 4-Amino-6-(2′,4′,5′-trifluorobiphenyl-4-yl)-7,8-dihydropyrimido[5,4-f][1,4]oxazepin-5(6H)-one] stands 130 nM; under `Nc1ncnc2c1C(=O)N(c1ccc(-c3ccc(F)cc3F)cc1)CCO2` [Example 29, 4-Amino-6-(2′,4′-difluorobiphenyl-4-yl)-7,8-dihydropyrimido[5,4-f][1,4]oxazepin-5(6H)-one], 60 nM; under `Cc1nc(N)c2c(n1)OCCN(c1ccc(-c3ccccc3Cl)cc1)C2=O` [Example 42, 4-Amino-6-(2′-chlorobiphenyl-4-yl)-2-methyl-7,8-dihydropyrimido[5,4-f][1,4]oxazepin-5(6H)-one], 90 nM.
On the same count and under the same terms, the result for `Cc1nc(N)c2c(n1)OCCN(c1ccc(-c3ccc(CNS(C)(=O)=O)cc3Cl)cc1)C2=O` [Example 43, N-((4′-(4-amino-2-methyl-5-oxo-7,8-dihydropyrimido[5,4-f][1,4]oxazepin-6(5H)-yl)-2-chlorobiphenyl-4-yl)methyl)methanesulfonamide] reads 100 nM; that for `C[C@@H]1CN(c2ccc(-c3ccccc3Cl)cc2)C(=O)c2c(N)ncnc2O1` [Example 44, (R)-4-Amino-6-(2′-chlorobiphenyl-4-yl)-8-methyl-7,8-dihydropyrimido[5,4-f][1,4]oxazepin-5(6H)-one], 20 nM.
Under setting [2], `C[C@@H]1CN(c2ccc(-c3ccc(CNS(C)(=O)=O)cc3Cl)cc2)C(=O)c2c(N)ncnc2O1` [Example 45, (R)—N-((4′-(4-amino-8-methyl-5-oxo-7,8-dihydropyrimido[5,4-f][1,4]oxazepin-6(5H)-yl)-2-chlorobiphenyl-4-yl)methyl)methanesulfonamide] had a concentration for half-maximal inhibition (IC50) of 60 nM.
On the same count and under the same terms, the result for `C[C@@H]1CN(c2ccc(-c3ccccc3F)cc2)C(=O)c2c(N)ncnc2O1` [Example 46, (R)-4-amino-6-(2′-fluorobiphenyl-4-yl)-8-methyl-7,8-dihydropyrimido[5,4-f][1,4]oxazepin-5(6H)-one] reads 20 nM; that for `C[C@@H]1CN(c2ccc(-c3ccc(CN(C)S(C)(=O)=O)cc3Cl)cc2)C(=O)c2c(N)ncnc2O1` [Example 47, (R)—N-((4′-(4-amino-8-methyl-5-oxo-7,8-dihydropyrimido[5,4-f][1,4]oxazepin-6(5H)-yl)-2-chlorobiphenyl-4-yl)methyl)-N-methylmethanesulfonamide], 50 nM; that for `C[C@@H]1CN(c2ccc(-c3ccc(CS(C)(=O)=O)cc3Cl)cc2)C(=O)c2c(N)ncnc2O1` [Example 48, (R)-4-Amino-6-(2′-chloro-4′-(methylsulfonylmethyl)biphenyl-4-yl)-8-methyl-7,8-dihydropyrimido[5,4-f][1,4]oxazepin-5(6H)-one], 60 nM.
The same measure, in the same setting: under `C[C@@H]1CN(c2ccc(-c3c(F)cccc3F)cc2)C(=O)c2c(N)ncnc2O1` [Example 49, (R)-4-amino-6-(2′,6′-difluorobiphenyl-4-yl)-8-methyl-7,8-dihydropyrimido[5,4-f][1,4]oxazepin-5(6H)-one] stands 20 nM; under `C[C@@H]1CN(c2ccc(-c3ccc(Cl)cc3C#N)c(F)c2)C(=O)c2c(N)ncnc2O1` [Example 50, (R)-4′-(4-Amino-8-methyl-5-oxo-7,8-dihydropyrimido[5,4-f][1,4]oxazepin-6(5H)-yl)-4-chloro-2′-fluorobiphenyl-2-carbonitrile], 40 nM; under `C[C@@H]1CN(c2ccc(-c3ccc(C#N)cc3Cl)c(F)c2)C(=O)c2c(N)ncnc2O1` [Example 51, (R)-4′-(4-Amino-8-methyl-5-oxo-7,8-dihydropyrimido[5,4-f][1,4]oxazepin-6(5H)-yl)-2-chloro-2′-fluorobiphenyl-4-carbonitrile], 20 nM.
`C[C@@H]1CN(c2ccc(-c3c(Cl)cccc3C#N)c(F)c2)C(=O)c2c(N)ncnc2O1` [Example 52, 4′-((R)-4-Amino-8-methyl-5-oxo-7,8-dihydropyrimido[5,4-f][1,4]oxazepin-6(5H)-yl)-6-chloro-2′-fluorobiphenyl-2-carbonitrile]: the half-inhibitory concentration (IC50) under setting [2] came to 70 nM.
On the same count and under the same terms, under `C[C@@H]1CN(c2ccc(-c3ccc(F)cc3F)c(F)c2)C(=O)c2c(N)ncnc2O1` [Example 53, (R)-4-Amino-8-methyl-6-(2,2′,4′-trifluorobiphenyl-4-yl)-7,8-dihydropyrimido[5,4-f][1,4]oxazepin-5(6H)-one] stands 20 nM.
The same measure, in the same setting: under `C[C@@H]1CN(c2ccc(-c3ccccc3F)c(F)c2)C(=O)c2c(N)ncnc2O1` [Example 54, (R)-4-Amino-6-(2,2′-difluorobiphenyl-4-yl)-8-methyl-7,8-dihydropyrimido[5,4-f][1,4]oxazepin-5(6H)-one] stands 20 nM; under `C[C@@H]1CN(c2ccc(-c3ccccc3Cl)c(F)c2)C(=O)c2c(N)ncnc2O1` [Example 55, (R)-4-Amino-6-(2′-chloro-2-fluorobiphenyl-4-yl)-8-methyl-7,8-dihydropyrimido[5,4-f][1,4]oxazepin-5(6H)-one], 10 nM.
The same measure, in the same setting: under `C[C@@H]1CN(c2ccc(-c3c(F)cccc3Cl)c(F)c2)C(=O)c2c(N)ncnc2O1` [Example 56, (8R)-4-amino-6-(2′-chloro-2,6′-difluorobiphenyl-4-yl)-8-methyl-7,8-dihydropyrimido[5,4-f][1,4]oxazepin-5(6H)-one] stands 10 nM; under `C[C@@H]1CN(c2ccc(-c3c(F)cccc3F)c(F)c2)C(=O)c2c(N)ncnc2O1` [Example 57, (R)-4-amino-8-methyl-6-(2,2′,6′-trifluorobiphenyl-4-yl)-7,8-dihydropyrimido[5,4-f][1,4]oxazepin-5(6H)-one], 20 nM.

(Values after patent US20110251173A1, “CHEMICAL COMPOUNDS” (AstraZeneca AB, priority 2010, published 2011).)
